Test results from ChEMBL document CHEMBL3272150, “Studies on antianaphylactic agents. 5. Synthesis of 3-(1H-tetrazol-5-yl)chromones, a new series of antiallergic substances” (J Med Chem, 1977).
The source made the active and inactive calls. The calls are words filed in the database; no cut-off is given here.

Test system: not listed separately
Test: Dissociation constant, pKa of the compound
Format: physicochemical
Conditions: not given
With `N#Cc1coc2ccccc2c1=O` the pKa was 5.85.
In the case of `O=C(O)c1coc2ccccc2c1=O`, the pKa is reported as 8.85.

Test system: Rattus norvegicus
Test: Antiallergic activity in iv dosed Sprague-Dawley rat assessed as inhibition of egg albumin-induced passive cutaneous anaphylaxis administered immediately prior to egg albumin challenge measured after 30 mins by Evan blue dye leakage assay relative to disodium cromoglycate
Format: functional
Conditions: not given
With `CCCCOc1ccc2c(=O)c(-c3nnn[nH]3)coc2c1` the “fold change (FC)” value was 0.9.
In the case of `O=c1c(-c2nnn[nH]2)coc2ccc(O)cc12`, the “fold change (FC)” value is reported as 4.5.
With `O=c1c(CCc2nnn[nH]2)coc2ccccc12` the “fold change (FC)” value was 0.07.
With `CCCCCCc1ccc2occ(-c3nnn[nH]3)c(=O)c2c1` the “fold change (FC)” value was 0.6.
In the case of `CC(C)c1ccc2occ(-c3nnn[nH]3)c(=O)c2c1`, the “fold change (FC)” value is reported as 3.4.
With `O=c1c(-c2nnn[nH]2)coc2c1ccc1ccccc12` the “fold change (FC)” value was 8.3.
In the case of `O=c1c(/C=C/c2nnn[nH]2)coc2ccccc12`, the “fold change (FC)” value is reported as 0.3.
For `Cc1oc2ccccc2c(=O)c1-c1nnn[nH]1`, the “fold change (FC)” value was 0.1.
With `CCCCc1ccc2occ(/C=C/c3nnn[nH]3)c(=O)c2c1` the “fold change (FC)” value was 0.07.
In the case of `CCCCc1ccc2occ(-c3nnn[nH]3)c(=O)c2c1`, the “fold change (FC)” value is reported as 1.8.
For `CCc1ccc2occ(-c3nnn[nH]3)c(=O)c2c1`, the “fold change (FC)” value was 4.
With `CCCc1ccc2occ(-c3nnn[nH]3)c(=O)c2c1` the “fold change (FC)” value was 3.4.
In the case of `O=C(Cc1nnn[nH]1)c1ccccc1O`, the “fold change (FC)” value is reported as 0.35.
In the case of `Cc1ccc2occ(-c3nnn[nH]3)c(=O)c2c1`, the “fold change (FC)” value is reported as 2.4.
With `O=c1c(-c2nnn[nH]2)coc2ccc3ccccc3c12` the “fold change (FC)” value was 5.
For `COc1ccc2occ(-c3nnn[nH]3)c(=O)c2c1`, the “fold change (FC)” value was 2.2.
In the case of `O=c1c(-c2nnn[nH]2)coc2ccc([N+](=O)[O-])cc12`, the “fold change (FC)” value is reported as 4.
With `O=c1cc(-c2nnn[nH]2)oc2ccccc12` the “fold change (FC)” value was 1.4.
With `O=c1c(-c2nnn[nH]2)coc2ccc(Cl)cc12` the “fold change (FC)” value was 4.
For `O=c1c(-c2nnn[nH]2)coc2ccccc12`, the “fold change (FC)” value was 3.5.
In the case of `O=c1c(-c2nnn[nH]2)coc2cc(O)ccc12`, the “fold change (FC)” value is reported as 1.1.
With `CN(C)c1ccc2occ(-c3nnn[nH]3)c(=O)c2c1` the “fold change (FC)” value was 2.3.
With `O=c1c(-c2nnn[nH]2)coc2ccc(C3CCCCC3)cc12` the “fold change (FC)” value was 0.5.
In the case of `CCOC(=O)c1ccc2occ(-c3nnn[nH]3)c(=O)c2c1`, the “fold change (FC)” value is reported as 2.9.
For `Cc1cc(C)c2occ(-c3nnn[nH]3)c(=O)c2c1`, the “fold change (FC)” value was 11.6.
For `O=c1c(-c2nnn[nH]2)coc2cc(O)c(O)cc12`, the “fold change (FC)” value was 1.8.

Test system: Rattus norvegicus
Test: Antiallergic activity in Sprague-Dawley rat assessed as inhibition of egg albumin-induced passive cutaneous anaphylaxis up to 20 mg/kg, iv administered immediately prior to egg albumin challenge measured after 30 mins by Evan blue dye leakage assay
Format: functional, organism-based
Design: dose 20 mg/kg
Conditions: not given
For `CC(C)(C)n1nnc(-c2coc3ccccc3c2=O)n1`, the inhibition was “inactive”.
In the case of `Cc1oc2ccccc2c(=O)c1Cc1nnn[nH]1`, the inhibition is reported as “inactive”.
With `Cc1nnc(-c2coc3ccccc3c2=O)o1` the inhibition was “inactive”.

Test system: Rattus norvegicus
Test: Antiallergic activity in po dosed Sprague-Dawley rat assessed as inhibition of egg albumin-induced passive cutaneous anaphylaxis administered 5 mins prior to egg albumin challenge measured after 30 mins by Evan blue dye leakage assay
Format: functional
Conditions: read-out: ID50 (the source's name)
With `CC(C)c1ccc2occ(-c3nnn[nH]3)c(=O)c2c1` the ED50 was 17 mg/kg.
In the case of `O=c1c(-c2nnn[nH]2)coc2c1ccc1ccccc12`, the ED50 is reported as 7.4 mg/kg.
`CCc1ccc2occ(-c3nnn[nH]3)c(=O)c2c1` gave an ED50 of 6.9 mg/kg.
With `O=C([O-])c1cc(=O)c2c(OCC(O)COc3cccc4oc(C(=O)[O-])cc(=O)c34)cccc2o1.[Na+].[Na+]` [CROMOLYN SODIUM] the ED50 was over 100 mg/kg.
`Cc1ccc2occ(-c3nnn[nH]3)c(=O)c2c1` gave an ED50 of 10 mg/kg.
Work on `O=c1c(-c2nnn[nH]2)coc2ccc3ccccc3c12` yielded an ED50 of 8.5 mg/kg.
With `COc1ccc2occ(-c3nnn[nH]3)c(=O)c2c1` the ED50 was 7 mg/kg.
`O=c1c(-c2nnn[nH]2)coc2ccccc12` gave an ED50 of 5.3 mg/kg.
For `Cc1cc(C)c2occ(-c3nnn[nH]3)c(=O)c2c1`, the ED50 was 1.25 mg/kg.
